Laboratory results taken from patent publication US10961200B2, “Small molecule inhibitors of lactate dehydrogenase and methods of use thereof” (THE UNITED STATES OF AMERICA, AS REPRESENTED BY THE …, priority 2014, dated 2021).
Counter-ions that a name gives are not always drawn. Like-named read-outs stand apart in the source and are kept apart here.

Experiments:
MiaPaCa2 cells = assay: cell-based HT lactate assay, colorimetric/fluorometric detection (inhibition of lactate production); settings: class symbols, 0 to 3 pluses
Method: Cell-based HT Lactate assay is a miniaturized Biovision Lactate Colorimetric/Fluorometric Assay Kit (Cat #K607-100). The assay is roughly a 3.5 hour assay run in a 1536 plate format. Cell number optimization should be run for each cell line to achieve an optimal number in which lactate production equals roughly 90% of the standard curve range. Cell number per well optimization has been performed with the following cell lines: MiaPaCa2—500 cells/well, SNU398—500 cells/well, and P493—500 cells/well.
The lactate activity in Table 8 is represented by 0 to 3 pluses as follows: +++<1 μM; ++1-10 μM; +10-57 μM; and −>57 μM.

Human LDHA = Human LDHA (Homo sapiens (Human), UniProt P00338); assay: human LDHA primary biochemical assay (resazurin/diaphorase coupled, fluorescence)
Source text: Test compounds were placed in a Greiner Bio-One (Monroe, N.C.) 1536-well black solid bottom assay plate. 200 millimolar (mM) Tris HCl, pH 7.4, 100 micromolar […] EDTA and 0.01% TWEEN-20™, final concentration, was used as the assay buffer. The LDHA reagent was 2 nanomolar (nM) Human LDHA (Meridian Life Science, Inc., Memphis, Tenn.), final concentration, in assay buffer.

[1] = LDHA inhibitory activity, assay of Example 1, activity level classes
[2] = read-out: Inhibitory activity IC50

IC50 (MiaPaCa2 cells; Homo sapiens, MIA PaCa-2) [µM] | IC50 (Human LDHA; [2]) [µM] | Compound | IC50 (Human LDHA; [1]) [µM] | IC50 (MiaPaCa2 cells) [µM]
1 to 10 | – | NS(=O)(=O)c1ccc(Cc2c(-c3cccc(-c4ccccc4)c3)nn(-c3nc(C(=O)O)cs3)c2CC2CC2(F)F)cc1 (stereo not shown) [Compound 207, 2-(3-([1,1′-biphenyl]-3-yl)-5-((2,2-difluorocyclopropyl)methyl)-4-(4-sulfamoylbenzyl)-1H-pyrazol-1-yl)thiazole-4-carboxylic acid] | < 0.1 | –
> 57 | – | Cn1c(C(=O)O)cnc1-n1cc(Cc2ccc(S(N)(=O)=O)cc2)c(-c2ccccc2)n1 [Compound 212, 1-methyl-2-(3-phenyl-4-(4-sulfamoylbenzyl)-1H-pyrazol-1-yl)-1H-imidazole-5-carboxylic acid] | > 57 | –
> 57 | 1 to 57 | NS(=O)(=O)c1ccc(Cc2cn(-c3cc(C(=O)O)cs3)nc2-c2ccccc2)cc1 [Compound 213, 5-(3-phenyl-4-(4-sulfamoylbenzyl)-1H-pyrazol-1-yl)thiophene-3-carboxylic acid] | – | –
1 to 10 | < 0.1 | Cn1cc(-c2cc(-c3nn(-c4nc(C(=O)O)cs4)c(CC4CC4)c3Cc3ccc(S(N)(=O)=O)cc3F)ccc2F)cn1 [Compound 214, 2-(5-(cyclopropylmethyl)-3-(4-fluoro-3-(1-methyl-1H-pyrazol-4-yl)phenyl)-4-(2-fluoro-4-sulfamoylbenzyl)-1H-pyrazol-1-yl)thiazole-4-carboxylic acid] | – | –
10 to 57 | < 0.1 | Cc1noc(C)c1-c1cc(-c2nn(-c3nc(C(=O)O)cs3)c(CC3CC3)c2Cc2ccc(S(N)(=O)=O)cc2F)ccc1F [Compound 215, 2-(5-(cyclopropylmethyl)-3-(3-(3,5-dimethylisoxazol-4-yl)-4-fluorophenyl)-4-(2-fluoro-4-sulfamoylbenzyl)-1H-pyrazol-1-yl)thiazole-4-carboxylic acid] | – | –
1 to 10 | < 0.1 | Cc1noc(C)c1-c1cc(-c2nn(-c3nc(C(=O)O)cs3)c(CC3CC3)c2Cc2ccc(S(N)(=O)=O)c(F)c2)ccc1F [Compound 219, 2-(5-(cyclopropylmethyl)-3-(3-(3,5-dimethylisoxazol-4-yl)-4-fluorophenyl)-4-(3-fluoro-4-sulfamoylbenzyl)-1H-pyrazol-1-yl)thiazole-4-carboxylic acid] | – | –
< 1 | < 0.1 | Cc1csc(-c2cc(-c3nn(-c4nc(C(=O)O)cs4)c(CC4CC4)c3Cc3ccc(S(N)(=O)=O)cc3F)ccc2F)c1 [Compound 221, 2-(5-(cyclopropylmethyl)-3-(4-fluoro-3-(4-methylthiophen-2-yl)phenyl)-4-(2-fluoro-4-sulfamoylbenzyl)-1H-pyrazol-1-yl)thiazole-4-carboxylic acid] | – | –
< 1 | < 0.1 | Cc1ccc(-c2cc(-c3nn(-c4nc(C(=O)O)cs4)c(CC4CC4)c3Cc3ccc(S(N)(=O)=O)c(F)c3)ccc2F)s1 [Compound 227, 2-(5-(cyclopropylmethyl)-3-(4-fluoro-3-(5-methylthiophen-2-yl)phenyl)-4-(3-fluoro-4-sulfamoylbenzyl)-1H-pyrazol-1-yl)thiazole-4-carboxylic acid] | – | –
> 57 | > 57 | CCOC(=O)c1csc(-n2nc(-c3ccc(F)c(-c4ccc(C)s4)c3)c(Cc3ccc(S(N)(=O)=O)c(F)c3)c2CC2CC2)n1 [Compound 229, ethyl 2-(5-(cyclopropylmethyl)-3-(4-fluoro-3-(5-methylthiophen-2-yl)phenyl)-4-(3-fluoro-4-sulfamoylbenzyl)-1H-pyrazol-1-yl)thiazole-4-carboxylate] | – | –
< 1 | < 0.1 | Cc1ccc(-c2cc(-c3nn(-c4nc(C(=O)O)cs4)c(CC4CC4)c3Cc3ccc(S(N)(=O)=O)c(F)c3)ccc2F)o1 [Compound 230, 2-(5-(cyclopropylmethyl)-3-(4-fluoro-3-(5-methylfuran-2-yl)phenyl)-4-(3-fluoro-4-sulfamoylbenzyl)-1H-pyrazol-1-yl)thiazole-4-carboxylic acid] | – | –
< 1 | < 0.1 | Cc1cnc(-c2cc(-c3nn(-c4nc(C(=O)O)cs4)c(CC4CC4)c3Cc3ccc(S(N)(=O)=O)c(F)c3)ccc2F)s1 [Compound 231, 2-(5-(cyclopropylmethyl)-3-(4-fluoro-3-(5-methylthiazol-2-yl)phenyl)-4-(3-fluoro-4-sulfamoylbenzyl)-1H-pyrazol-1-yl)thiazole-4-carboxylic acid, TFA] | – | –
< 1 | < 0.1 | Cc1ncc(-c2cc(-c3nn(-c4nc(C(=O)O)cs4)c(CC4CC4)c3Cc3ccc(S(N)(=O)=O)c(F)c3)ccc2F)s1 [Compound 232, 2-(5-(cyclopropylmethyl)-3-(4-fluoro-3-(2-methylthiazol-5-yl)phenyl)-4-(3-fluoro-4-sulfamoylbenzyl)-1H-pyrazol-1-yl)thiazole-4-carboxylic acid] | – | –
< 1 | < 0.1 | Cc1ccc(-c2cc(-c3nn(-c4nc(C(=O)O)cs4)c(CC4CC4)c3Cc3ccc(S(N)(=O)=O)cc3F)ccc2F)s1 [Compound 233, 2-(5-(cyclopropylmethyl)-3-(4-fluoro-3-(5-methylthiophen-2-yl)phenyl)-4-(2-fluoro-4-sulfamoylbenzyl)-1H-pyrazol-1-yl)thiazole-4-carboxylic acid] | – | –
< 1 | < 0.1 | NS(=O)(=O)c1ccc(Cc2c(-c3ccc(F)c(-c4cccs4)c3)nn(-c3nc(C(=O)O)cs3)c2CC2CC2)cc1F [Compound 234, 2-(5-(cyclopropylmethyl)-3-(4-fluoro-3-(thiophen-2-yl)phenyl)-4-(3-fluoro-4-sulfamoylbenzyl)-1H-pyrazol-1-yl)thiazole-4-carboxylic acid, TFA] | – | –

Second part, the compound before the results:

Compound | IC50 (MiaPaCa2 cells; Homo sapiens, MIA PaCa-2) [µM] | IC50 (Human LDHA; [2]) [µM] | IC50 (Human LDHA; [1]) [µM] | IC50 (MiaPaCa2 cells) [µM]
Cn1cc(-c2cc(-c3nn(-c4nc(C(=O)O)cs4)c(CC4CC4)c3Cc3ccc(S(N)(=O)=O)c(F)c3)ccc2F)cn1 [Compound 217, 2-(5-(cyclopropylmethyl)-3-(4-fluoro-3-(1-methyl-1H-pyrazol-4-yl)phenyl)-4-(3-fluoro-4-sulfamoylbenzyl)-1H-pyrazol-1-yl)thiazole-4-carboxylic acid] | 1 to 10 | < 0.1 | – | –
Cc1csc(-c2cc(-c3nn(-c4nc(C(=O)O)cs4)c(CC4CC4)c3Cc3ccc(S(N)(=O)=O)c(F)c3)ccc2F)c1 [Compound 223, 2-(5-(cyclopropylmethyl)-3-(4-fluoro-3-(4-methylthiophen-2-yl)phenyl)-4-(3-fluoro-4-sulfamoylbenzyl)-1H-pyrazol-1-yl)thiazole-4-carboxylic acid] | < 1 | < 0.1 | – | –
COc1cccc(-c2cc(-c3nn(-c4nc(C(=O)O)cs4)c(CC4CC4)c3Cc3ccc(S(N)(=O)=O)cc3)ccc2F)c1 [Compound 237] | – | – | < 0.1 | 1 to 10
NS(=O)(=O)c1ccc(Cc2c(-c3ccc(F)c(-c4cccc(F)c4)c3)nn(-c3nc(C(=O)O)cs3)c2CC2CC2)cc1 [Compound 239] | – | – | < 0.1 | < 1
NS(=O)(=O)c1ccc(Cc2c(-c3ccc(F)c(-c4cccc(F)c4)c3)nn(-c3nc(C(=O)O)cs3)c2C2CC2)cc1F [Compound 251] | – | – | < 0.1 | 1 to 10
COc1cccc(-c2cc(-c3nn(-c4nc(C(=O)O)cs4)c(C4CC4)c3Cc3ccc(S(N)(=O)=O)c(F)c3)ccc2F)c1 [Compound 252] | – | – | < 0.1 | 1 to 10
NS(=O)(=O)c1ccc(Cc2c(-c3ccc(F)c(-c4ccccc4)c3)nn(-c3nc(C(=O)O)cs3)c2CC2CC2)cc1 [Compound 257] | – | – | < 0.1 | < 1
NS(=O)(=O)c1ccc(Cc2c(-c3ccc(F)c(C#CC4CCCC4)c3)nn(-c3nc(C(=O)O)cs3)c2CC2CC2)cc1F [Compound 258] | – | – | < 0.1 | < 1
CN1CC=C(c2cc(-c3nn(-c4nc(C(=O)O)cs4)c(CC4CC4)c3Cc3ccc(S(N)(=O)=O)c(F)c3)ccc2F)CC1 [Compound 259] | – | – | < 0.1 | 10 to 57
NS(=O)(=O)c1ccc(Cc2c(-c3ccc(F)c(C#CC4CCNCC4)c3)nn(-c3nc(C(=O)O)cs3)c2CC2CC2)cc1F [Compound 261] | – | – | < 0.1 | 1 to 10
NS(=O)(=O)c1ccc(Cc2c(-c3ccc(F)c(C#CCN4CCOCC4)c3)nn(-c3nc(C(=O)O)cs3)c2CC2CC2)cc1F [Compound 263] | – | – | < 0.1 | 10 to 57
C=C(C)C#Cc1cc(-c2nn(-c3nc(C(=O)O)cs3)c(CC3CC3)c2Cc2ccc(S(N)(=O)=O)c(F)c2)ccc1F [Compound 264] | – | – | < 0.1 | < 1
CC(C)(O)C#Cc1cc(-c2nn(-c3nc(C(=O)O)cs3)c(CC3CC3)c2Cc2ccc(S(N)(=O)=O)c(F)c2)ccc1F [Compound 265] | – | – | < 0.1 | 1 to 10
CCOC(=O)c1csc(-n2nc(-c3cccc(-c4ccc(C)cc4)c3)c(Cc3ccc(S(N)(=O)=O)c(F)c3)c2CC2CC2)n1 [Compound 266] | – | – | 1 to 57 | > 57
NS(=O)(=O)c1ccc(Cc2c(-c3cccc(N4CCOCC4)c3)nn(-c3ncc(C(=O)O)s3)c2CC2CC2)cc1F [Compound 267] | – | – | < 0.1 | 10 to 57
CCOC(=O)c1csc(-n2nc(-c3ccc(F)c(C#CC4CCCC4)c3)c(Cc3ccc(S(N)(=O)=O)c(F)c3)c2CC2CC2)n1 [Compound 268] | – | – | > 57 | > 57
CC#Cc1cccc(-c2nn(-c3ncc(C(=O)OCC)s3)c(CC3CC3)c2Cc2ccc(S(N)(=O)=O)c(F)c2)c1 [Compound 269] | – | – | 1 to 57 | < 1
Cc1ccc(-c2cccc(-c3nn(-c4nc(C(=O)O)cs4)c(CC4CC4)c3Cc3ccc(S(N)(=O)=O)cc3)c2)cc1 [Compound 281] | – | – | < 0.1 | < 1
